Measured values: US10894807B2 (Siemens Medical Solutions USA, Inc., priority 2011, dated 2021)

Molecular target: human PSMA (Homo sapiens (Human), UniProt Q04609)
Test: Enzymatic assay for in vitro evaluation of PSMA inhibitors (fluorescent assay of PSMA activity, NAAG substrate, OPA detection of glutamate)
Format: biochemical
Conditions: for PSMA Blkg % (10 μM): compound at 10 μM

Sequence of human PSMA (Q04609 whole entry): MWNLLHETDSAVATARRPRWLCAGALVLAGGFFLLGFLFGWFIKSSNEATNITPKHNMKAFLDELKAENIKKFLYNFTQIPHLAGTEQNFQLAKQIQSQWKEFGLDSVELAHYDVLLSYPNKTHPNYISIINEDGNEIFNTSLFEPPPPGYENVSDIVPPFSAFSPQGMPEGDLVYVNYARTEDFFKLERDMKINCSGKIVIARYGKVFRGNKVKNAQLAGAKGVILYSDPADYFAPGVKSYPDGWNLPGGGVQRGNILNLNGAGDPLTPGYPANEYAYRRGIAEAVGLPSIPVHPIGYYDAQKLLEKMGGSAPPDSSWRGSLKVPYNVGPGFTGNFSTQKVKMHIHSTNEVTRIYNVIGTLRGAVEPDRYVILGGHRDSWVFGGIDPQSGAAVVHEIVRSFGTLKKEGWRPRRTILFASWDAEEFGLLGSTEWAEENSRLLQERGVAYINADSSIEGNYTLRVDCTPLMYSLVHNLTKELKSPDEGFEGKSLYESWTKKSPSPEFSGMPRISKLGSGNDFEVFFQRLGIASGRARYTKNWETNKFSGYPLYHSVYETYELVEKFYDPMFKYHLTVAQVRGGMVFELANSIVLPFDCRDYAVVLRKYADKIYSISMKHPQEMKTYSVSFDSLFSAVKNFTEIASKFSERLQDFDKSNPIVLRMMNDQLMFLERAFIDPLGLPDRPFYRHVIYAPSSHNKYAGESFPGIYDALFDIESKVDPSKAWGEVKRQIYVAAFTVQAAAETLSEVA

Compound	PSMA Blkg % (10 μM) [%]	Ki [nM]
O=C(O)CC[C@@H](C(=O)O)N(O)C(=O)N[C@@H](CCCCNC(=O)OCc1ccccc1)C(=O)O [P140, (9S,13S)-12-Hydroxy-3,11-dioxo-1-phenyl-2-oxa-4,10,12-triazapentadecane-9,13,15-tricarboxylic Acid]	64	–
O=C(O)CC[C@H](NC(=O)CN(O)C(=O)CCCNC(=O)c1ccc(-n2cc(CCCF)nn2)cc1)C(=O)O [P141, (S)-2-(2-(4-(4-(4-(3-Fluoropropyl)-1H-1,2,3-triazol-1-yl)benzamido)-N-hydroxybutanamido)acetamido)pentanedioic Acid]	1	–
O=C(O)CC[C@H](NC(=O)CN(O)C(=O)CCCNC(=O)Cn1cc(CCCF)nn1)C(=O)O [P142, (S)-2-(2-(4-(2-(4-(3-Fluoropropyl)-1H-1,2,3-triazol-1-yl)acetamido)-N-hydroxybutanamido)acetamido)pentanedioic Acid]	5	–
CN(C(=S)N[C@@H](CCC(=O)O)C(=O)O)[C@@H](CCCCNC(=O)OCc1ccccc1)C(=O)O [P143, (9S,13S)-10-Methyl-3-oxo-1-phenyl-1-thioxo-2-oxa-4,10,12-triazapentadecane-9,13,15-tricarboxylic Acid]	15	–
O=C(O)CC[C@H](NC(=O)CN(O)C(=O)CCc1ccc(-n2cc(CCCF)nn2)cc1)C(=O)O [P144, (S)-2-(2-(3-(4-(4-(3-Fluoropropyl)-1H-1,2,3-triazol-1-yl)phenyl)-N-hydroxypropanamido)acetamido)pentanedioic Acid]	7	–
O=C(O)CC[C@H](NC(=S)CN(O)C(=O)CCCc1ccc(-n2cc(CCCF)nn2)cc1)C(=O)O [P145, (S)-2-(2-(4-(4-(4-(3-Fluoropropyl)-1H-1,2,3-triazol-1-yl)phenyl)-N-hydroxy-butanamido)ethanethioamido)pentanedioic Acid]	7	–
O=C(O)CC[C@H](NC(=S)N(O)[C@@H](CCCCNC(=O)c1ccc(-n2cc(CCCF)nn2)cc1)C(=O)O)C(=O)O [P146, (S)-2-(3-((S)-1-Carboxy-5-(4-(4-(3-fluoropropyl)-1H-1,2,3-triazol-1-yl)benzamido)pentyl)-3-hydroxythioureido)pentanedioic Acid]	45	–
O=C(O)CC[C@@H](C(=O)O)N(O)C(=O)N[C@@H](CCCCNC(=O)CCCc1ccc(-n2cc(CCCF)nn2)cc1)C(=O)O [P147, (S)-2-(3-((S)-1-Carboxy-5-(4-(4-(4-(3-fluoropropyl)-1H-1,2,3-triazol-1-yl)phenyl)butanamido)pentyl)-1-hydroxyureido)pentanedioic Acid]	69	–
O=C(O)CC[C@@H](C(=O)O)N(O)C(=O)N[C@@H](CCCCNC(=O)Cn1cc(CCCF)nn1)C(=O)O [P148, (S)-2-(3-((S)-1-Carboxy-5-(2-(4-(3-fluoropropyl)-1H-1,2,3-triazol-1-yl)acetamido)pentyl)-1-hydroxyureido)pentanedioic Acid]	87	250
COc1ccc(CCNC(=O)N(O)CC(=O)N[C@@H](CCC(=O)O)C(=O)O)cc1OC [P149, (S)-2-(2-(3-(3,4-Dimethoxyphenethyl)-1-hydroxyureido)acetamido)pentanedioic Acid]	0	–
CCC1(CC)C(=O)N([C@@H](CCCCn2cc(CCCF)nn2)C(=O)O)C(=O)N([C@@H](CCC(=O)O)C(=O)O)C1=O [P150, (S)-2-(3-((S)-1-Carboxy-5-(4-(3-fluoropropyl)-1H-1,2,3-triazol-1-yl)pentyl)-5,5-diethyl-2,4,6-trioxotetrahydropyrimidin-1(2H)-yl)pentanedioic Acid]	9	–
CCC1(CC)C(=O)N([C@@H](CCCCn2cc(COCCOCCNc3ccc([N+](=O)[O-])cc3[N+](=O)[O-])nn2)C(=O)O)C(=O)N([C@@H](CCC(=O)O)C(=O)O)C1=O [P151, (S)-2-(3-((S)-1-Carboxy-5-(4-((2-(2-(2,4-dinitrophenylamino)ethoxy)ethoxy)methyl)-1H-1,2,3-triazol-1-yl)pentyl)-5,5-diethyl-2,4,6-trioxotetrahydropyrimidin-1(2H)-yl)pentanedioic Acid]	17	–
O=C(O)CC[C@@H](C(=O)O)N(O)C(=O)N[C@@H](CCCCNC(=O)c1ccc(-n2cc(CCCF)nn2)cc1)C(=O)O [P152, (S)-2-(3-((S)-1-Carboxy-5-(4-(4-(3-fluoropropyl)-1H-1,2,3-triazol-1-yl)benzamido)pentyl)-1-hydroxyureido)pentanedioic Acid]	93	128
N#C/N=C(/N[C@@H](CCCCNC(=O)c1ccc(-n2cc(CCCF)nn2)cc1)C(=O)O)N[C@@H](CCC(=O)O)C(=O)O [P153, (S)-2-(3-((S)-1-Carboxy-5-(4-(4-(3-fluoropropyl)-1H-1,2,3-triazol-1-yl)benzamido)pentyl)-2-cyanoguanidino)pentanedioic Acid]	63	–
O=C(O)CC[C@H](NC(=O)CN(O)C(=O)CCCc1ccc(F)cc1)C(=O)O [P154, (S)-2-(2-(4-(4-Fluorophenyl)-N-hydroxybutanamido)acetamido)pentanedioic Acid]	50	–
O=C(O)CC[C@H](NC(=O)N[C@@H](CCCCNC(=O)c1ccc(F)cc1)C(=O)O)C(=O)O [P155]	97	3.1
CN(C(=O)N[C@@H](CCC(=O)O)C(=O)O)[C@@H](CCCCNC(=O)c1ccc(F)cc1)C(=O)O [P156, (S)-2-(3-((S)-1-Carboxy-5-(4-fluorobenzamido)pentyl)-3-methylureido)pentanedioic Acid]	87	219

Compound	PSMA Blkg % (10 μM) [%]	Ki [nM]
CC(F)C(=O)Nc1ccc(C(=O)NCCCC[C@@H](C(=O)O)N(O)C(=O)N[C@@H](CCC(=O)O)C(=O)O)cc1 (stereo partly drawn) [P157, (2S)-2-(3-((1S)-1-Carboxy-5-(4-(2-fluoropropanamido)benzamido)pentyl)-3-hydroxyureido)pentanedioic Acid]	79	> 313
CC(F)C(=O)Nc1ccc(C(=O)NCCCCC(C(=O)O)N(C)C(=O)N[C@@H](CCC(=O)O)C(=O)O)cc1 (stereo partly drawn) [P158, (2S)-2-(3-((S)-1-Carboxy-5-(4-(2-fluoropropanamido)benzamido)pentyl)-3-methylureido)pentanedioic Acid]	99	34.4
CN(C(=O)[C@H](CC(=O)O)NC(=O)c1ccc(-n2cc(CCCF)nn2)cc1)[C@@H](CCC(=O)O)C(=O)O [P159, (S)-2-((S)-3-Carboxy-2-(4-(4-(3-fluoropropyl)-1H-1,2,3-triazol-1-yl)benzamido)-N-methylpropanamido)pentanedioic Acid]	39	–
CN(C(=O)N[C@@H](CCC(=O)O)C(=O)O)[C@@H](CCCCNC(=O)c1ccc(OCCF)cc1)C(=O)O [P161]	96	–
O=C(O)CC[C@@H](C(=O)O)N(O)C(=O)N[C@@H](CCCCNC(=O)c1ccc(F)cc1)C(=O)O [P162, (S)-2-(3-((S)-1-Carboxy-5-(4-fluorobenzamido)pentyl)-1-hydroxyureido)pentanedioic Acid]	79	> 531
CN(C(=O)[C@H](CC(=O)O)NC(=O)c1ccc(F)cc1)[C@@H](CCC(=O)O)C(=O)O [P163, (S)-2-((S)-3-Carboxy-2-(4-fluorobenzamido)-N-methylpropanamido)pentanedioic Acid]	0	–
O=C(O)CC[C@H](NC(=O)N(O)[C@@H](CCCCNC(=O)c1ccc(NC(=O)c2ccc(F)nc2)cc1)C(=O)O)C(=O)O [P164, (S)-2-(3-((S)-1-Carboxy-5-(4-(6-fluoronicotinamido)benzamido)pentyl)-3-hydroxyureido)pentanedioic Acid]	80	> 407
O=C(O)/C=C/C(=O)N[C@@H](CCC(=O)O)C(=O)O [P165]	11	–
O=C(O)CC[C@H](NC(=O)N(O)[C@@H](CCCCNC(=O)Cn1cc(CCCF)nn1)C(=O)O)C(=O)O [P166, (S)-2-(3-((S)-1-Carboxy-5-(2-(4-(3-fluoropropyl)-1H-1,2,3-triazol-1-yl)acetamido)pentyl)-3-hydroxyureido)pentanedioic Acid]	87	> 375
O=C(O)CC[C@H](NC(=O)N(O)[C@@H](CCCCNC(=O)c1ccc(OCCF)cc1)C(=O)O)C(=O)O [P167, (S)-2-(3-((S)-1-Carboxy-5-(4-(2-fluoroethoxy)benzamido)pentyl)-3-hydroxyureido)pentanedioic Acid]	93	> 657
C#Cc1ccc(C(=O)NCCCC[C@@H](C(=O)O)N(O)C(=O)N[C@@H](CCC(=O)O)C(=O)O)cc1 [P168, (S)-2-(3-((S)-1-Carboxy-5-(4-ethynylbenzamido)pentyl)-3-hydroxyureido)pentanedioic Acid]	98	–
O=C(O)CC[C@H](NC(=O)N(O)[C@@H](CCCCNC(=O)c1ccc(F)cc1)C(=O)O)C(=O)O [P169, (S)-2-(3-((S)-1-Carboxy-5-(4-fluorobenzamido)pentyl)-3-hydroxyureido)pentanedioic Acid]	79	156
CN(C(=O)[C@H](CC(=O)O)NC(=O)CCc1ccc(-n2cc(CCCF)nn2)cc1)[C@@H](CCC(=O)O)C(=O)O [P170, (S)-2-((S)-3-Carboxy-2-(3-(4-(4-(3-fluoropropyl)-1H-1,2,3-triazol-1-yl)phenyl)propanamido)-N-methylpropanamido)pentanedioic Acid]	58	–
O=C(O)CC[C@H](NC(=O)N(O)C(CCCCNC(=O)c1ccc(NC(=O)c2ccc(F)cc2)cc1)C(=O)O)C(=O)O (some centres unmarked) [P171]	87	–
CN(C(=O)N[C@@H](CCC(=O)O)C(=O)O)[C@@H](CCCCn1cc(COCCOCCNc2ccc([N+](=O)[O-])cc2[N+](=O)[O-])nn1)C(=O)O [P172, (S)-2-(3-((S)-1-Carboxy-5-(4-((2-(2-(2,4-dinitrophenylamino)ethoxy)ethoxy)methyl)-1H-1,2,3-triazol-1-yl)pentyl)-3-methylureido)pentanedioic Acid]	–	313
CN(C(=O)N[C@@H](CCC(=O)O)C(=O)O)[C@@H](CCCCn1cc(CCCF)nn1)C(=O)O [P173, (S)-2-(3-((S)-1-Carboxy-5-(4-(3-fluoropropyl)-1H-1,2,3-triazol-1-yl)pentyl)-3-methylureido)pentanedioic Acid]	31	–
